# Experimental data taken from patent publication US9884868B2, “TGF-beta inhibitors” (Rigel Pharmaceuticals, Inc., priority 2015, dated 2018).
# Where two headings read alike, the source gives them in different places.
# Legend:
# HIS-TGF-βR2 WT = HIS-TGF-βR2 WT (Homo sapiens (Human), UniProt P37173); experiment: HTRF probe displacement assay with HIS-TGF-βR2 WT
# HIS-TGF-βR1 T204D = HIS-TGF-βR1 T204D (Homo sapiens (Human), UniProt P36897, T204D); experiment: HTRF probe displacement assay with HIS-TGF-βR1 T204D
# [1] = read-out: TGFBr2 IC50, HTRF probe displacement, 1 nM HIS-TGF-βR2 WT, 1 hour at room temperature
# [2] = read-out: TGFbr1 IC50, HTRF probe displacement, 1 nM HIS-TGF-βR1 T204D, 1 hour at room temperature
# Sequence of HIS-TGF-βR2 WT (P37173 23-567): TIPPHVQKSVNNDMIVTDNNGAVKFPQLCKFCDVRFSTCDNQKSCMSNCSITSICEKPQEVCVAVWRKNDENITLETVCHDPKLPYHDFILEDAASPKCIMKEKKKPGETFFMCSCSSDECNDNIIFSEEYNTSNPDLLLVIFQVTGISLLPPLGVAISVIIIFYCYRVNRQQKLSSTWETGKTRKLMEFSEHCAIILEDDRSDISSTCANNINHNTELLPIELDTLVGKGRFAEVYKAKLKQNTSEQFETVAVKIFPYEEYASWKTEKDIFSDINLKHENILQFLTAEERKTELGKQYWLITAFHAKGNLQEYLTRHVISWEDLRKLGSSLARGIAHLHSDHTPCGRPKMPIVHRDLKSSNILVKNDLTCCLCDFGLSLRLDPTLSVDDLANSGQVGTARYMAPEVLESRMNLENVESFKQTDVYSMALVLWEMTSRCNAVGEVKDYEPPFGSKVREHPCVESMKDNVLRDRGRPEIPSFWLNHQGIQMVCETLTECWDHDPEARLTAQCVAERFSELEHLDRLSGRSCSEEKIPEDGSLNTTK
# Sequence of HIS-TGF-βR1 T204D (P36897 34-503 T204D): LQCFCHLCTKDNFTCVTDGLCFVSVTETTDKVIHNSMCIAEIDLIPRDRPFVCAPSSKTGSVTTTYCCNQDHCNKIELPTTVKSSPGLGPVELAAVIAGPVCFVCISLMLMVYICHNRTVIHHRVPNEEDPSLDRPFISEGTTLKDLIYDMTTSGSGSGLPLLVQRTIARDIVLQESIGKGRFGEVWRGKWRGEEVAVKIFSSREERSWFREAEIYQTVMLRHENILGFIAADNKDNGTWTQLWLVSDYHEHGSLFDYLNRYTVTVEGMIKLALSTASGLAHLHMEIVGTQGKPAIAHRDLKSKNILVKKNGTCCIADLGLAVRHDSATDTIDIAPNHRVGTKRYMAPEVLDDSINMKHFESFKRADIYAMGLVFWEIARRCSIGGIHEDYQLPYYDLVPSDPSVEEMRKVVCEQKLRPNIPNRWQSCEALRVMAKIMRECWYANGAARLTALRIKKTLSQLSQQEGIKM
SMILES,IC50 (HIS-TGF-βR2 WT; [1]) [nM],IC50 (HIS-TGF-βR1 T204D; [2]) [nM],IC50 (HIS-TGF-βR2 WT) [nM],IC50 (HIS-TGF-βR1 T204D) [nM]
"CC(C)(C)NC(=O)N1CC(n2cnc(-c3ccc(F)cc3)c2-c2ccc3ncc(C(N)=O)n3n2)C1 [Example 195′, 6-(1-(1-(tert-butylcarbamoyl)azetidin-3-yl)-4-(4-fluorophenyl)-1H-imidazol-5-yl)imidazo[1,2-b]pyridazine-3-carboxamide]",> 15000,436,,
"N#Cc1cnc2ccc(-c3c(-c4ccc(F)cc4)ncn3C3CN(C(=O)C4CC4)C3)nn12 [Example 192′, 6-(1-(1-(cyclopropanecarbonyl)azetidin-3-yl)-4-(4-fluorophenyl)-1H-imidazol-5-yl)imidazo[1,2-b]pyridazine-3-carbonitrile]",> 15000,229,,
"COCC(C1CC1)n1cnc(-c2ccc(F)cc2)c1-c1ccc2ncc(C#N)n2n1 (stereo not shown) [16′, 6-(1-(1-cyclopropyl-2-methoxyethyl)-4-(4-fluorophenyl)-1H-imidazol-5-yl)imidazo[1,2-b]pyridazine-3-carbonitrile]",,,> 15000,2.3
"NC(=O)c1cnc2ccc(-c3c(-c4ccc(F)c(Cl)c4)ncn3C(CO)CO)cn12 [122′, 6-(4-(3-chloro-4-fluorophenyl)-1-(1,3-dihydroxypropan-2-yl)-1H-imidazol-5-yl)imidazo[1,2-a]pyridine-3-carboxamide]",> 15000,1.8,,
"CC(=O)N1CCn2c(nc(-c3ccc(F)cc3)c2-c2ccc3ncc(C(N)=O)n3c2)C1 [292′, 6-(7-acetyl-2-(4-fluorophenyl)-5,6,7,8-tetrahydroimidazo[1,2-a]pyrazin-3-yl)imidazo[1,2-a]pyridine-3-carboxamide]",> 15000,,,
"CC(C)Oc1ccc(-c2ncn(CC(F)F)c2-c2ccc3ncc(C#N)n3n2)cc1 [263′, 6-(1-(2,2-difluoroethyl)-4-(4-isopropoxyphenyl)-1H-imidazol-5-yl)imidazo[1,2-b]pyridazine-3-carbonitrile]",> 15000,171,,
"N#Cc1cnc2ccc(-c3c(-c4cccc(OC(F)(F)F)c4)ncn3CC(F)F)nn12 [259′, 6-(1-(2,2-difluoroethyl)-4-(3-(trifluoromethoxy)phenyl)-1H-imidazol-5-yl)imidazo[1,2-b]pyridazine-3-carbonitrile]",> 15000,1,,
"N#Cc1cnc2ccc(-c3c(-c4ccc(F)cc4)ncn3C3CCCCC3O)nn12 (stereo not shown) [17′, 6-(4-(4-fluorophenyl)-1-(2-hydroxycyclohexyl)-1H-imidazol-5-yl)imidazo[1,2-b]pyridazine-3-carbonitrile]",> 15000,3.5,,
"CC(C)(C)C(=O)NCc1cnc2ccc(-c3c(-c4ccc(F)cc4)ncn3CC(F)F)nn12 [Example 202′, N-((6-(1-(2,2-difluoroethyl)-4-(4-fluorophenyl)-1H-imidazol-5-yl)imidazo[1,2-b]pyridazin-3-yl)methyl)pivalamide]",> 15000,43.8,,
"Fc1ccc(-c2ncn(CC(F)F)c2-c2ccc3ncc(CNCC(F)F)n3c2)cc1 [Example 275′, N-((6-(1-(2,2-difluoroethyl)-4-(4-fluorophenyl)-1H-imidazol-5-yl)imidazo[1,2-a]pyridin-3-yl)methyl)-2,2-difluoroethanamine]",> 15000,121,,
"N#Cc1cnc2ccc(-c3c(-c4ccc(F)cc4)ncn3C3CCC(F)(F)CC3)nn12 [8′, 6-(1-(4,4-difluorocyclohexyl)-4-(4-fluorophenyl)-1H-imidazol-5-yl)imidazo[1,2-b]pyridazine-3-carbonitrile]",> 15000,17.9,,
"CC(=O)NCc1cnc2ccc(-c3c(-c4ccc(F)cc4)ncn3CC(F)F)nn12 [Example 197′, N-((6-(1-(2,2-difluoroethyl)-4-(4-fluorophenyl)-1H-imidazol-5-yl)imidazo[1,2-b]pyridazin-3-yl)methyl)acetamide]",> 15000,11.9,,
NC(=O)CNC(=O)c1cnc2ccc(-c3c(-c4ccc(F)cc4)ncn3CC(F)F)cn12 [280′],> 15000,3.2,,
"CS(=O)(=O)Nc1ccccc1-c1ncn(CC(F)F)c1-c1ccc2ncc(C#N)n2n1 [239′, N-(2-(5-(3-cyanoimidazo[1,2-b]pyridazin-6-yl)-1-(2,2-difluoroethyl)-1H-imidazol-4-yl)phenyl)methanesulfonamide]",> 15000,521,,
"CC(C)OC(=O)NCc1cnc2ccc(-c3c(-c4ccc(F)cc4)ncn3CC(F)F)nn12 [Example 201′, isopropyl ((6-(1-(2,2-difluoroethyl)-4-(4-fluorophenyl)-1H-imidazol-5-yl)imidazo[1,2-b]pyridazin-3-yl)methyl)carbamate]",> 15000,5,,
"CN(C)C(=O)c1cnc2ccc(-c3c(-c4ccc(F)cc4)ncn3CC(F)F)nn12 [207′, 6-(1-(2,2-difluoroethyl)-4-(4-fluorophenyl)-1H-imidazol-5-yl)-N,N-dimethylimidazo[1,2-b]pyridazine-3-carboxamide]",> 15000,3,,
"N#Cc1cnc2ccc(-c3c(-c4ccc(F)c(C(F)(F)F)c4)ncn3CC(F)F)nn12 [260′, 6-(1-(2,2-difluoroethyl)-4-(4-fluoro-3-(trifluoromethyl)phenyl)-1H-imidazol-5-yl)imidazo[1,2-b]pyridazine-3-carbonitrile]",> 15000,8.8,,
"NC(=O)c1cnc2ccc(-c3c(-c4ccc(F)c(Cl)c4)ncn3CCN3CCOCC3)cn12 [120′, 6-(4-(3-chloro-4-fluorophenyl)-1-(2-morpholinoethyl)-1H-imidazol-5-yl)imidazo[1,2-a]pyridine-3-carboxamide]",> 15000,6.5,,

SMILES,IC50 (HIS-TGF-βR2 WT; [1]) [nM],IC50 (HIS-TGF-βR1 T204D; [2]) [nM],IC50 (HIS-TGF-βR2 WT) [nM],IC50 (HIS-TGF-βR1 T204D) [nM]
"N#Cc1cnc2ccc(-c3c(-c4ccc(F)cc4C(F)(F)F)ncn3CC(F)F)nn12 [261′, 6-(1-(2,2-difluoroethyl)-4-(4-fluoro-2-(trifluoromethyl)phenyl)-1H-imidazol-5-yl)imidazo[1,2-b]pyridazine-3-carbonitrile]",> 15000,,,
"N#Cc1cnc2ccc(-c3c(-c4cccc(-c5ccccc5)c4)ncn3CC(F)F)nn12 [257′, 6-(4-([1,1′-biphenyl]-3-yl)-1-(2,2-difluoroethyl)-1H-imidazol-5-yl)imidazo[1,2-b]pyridazine-3-carbonitrile]",> 15000,,,
"Cn1cnc(-c2ccc(F)c(Cl)c2)c1-c1ccc2nccn2c1 [181′, 6-(4-(3-chloro-4-fluorophenyl)-1-methyl-1H-imidazol-5-yl)imidazo[1,2-a]pyridine]",,6,,
"N#Cc1cnc2ccc(-c3c(-c4ccc(F)cc4)ncn3CCCO)cn12 [75′, 6-(4-(4-fluorophenyl)-1-(3-hydroxypropyl)-1H-imidazol-5-yl)imidazo[1,2-a]pyridine-3-carbonitrile]",,200,,
"C[C@H](O)Cn1cnc(-c2ccc(F)cc2)c1-c1ccc2ncc(C#N)n2c1 [89′, (S)-6-(4-(4-fluorophenyl)-1-(2-hydroxypropyl)-1H-imidazol-5-yl)imidazo[1,2-a]pyridine-3-carbonitrile]",,127,,
"CC1(Cn2cnc(-c3ccc(F)c(Cl)c3)c2-c2ccc3ncc(C#N)n3n2)CC1 [62′, 6-(4-(3-chloro-4-fluorophenyl)-1-((1-methylcyclopropyl)methyl)-1H-imidazol-5-yl)imidazo[1,2-b]pyridazine-3-carbonitrile]",,1.6,,
"NC(=O)c1cnc2ccc(-c3c(-c4ccc(F)cc4)nc4n3CCC4)cn12 [Example 283′, 6-(2-(4-fluorophenyl)-6,7-dihydro-5H-pyrrolo[1,2-a]imidazol-3-yl)imidazo[1,2-a]pyridine-3-carboxamide]",,0.9,,
"N#Cc1cnc2ccc(-c3c(-c4ccc(F)c(Cl)c4)ncn3CCO)nn12 [Example 32′, 6-(4-(3-chloro-4-fluorophenyl)-1-(2-hydroxyethyl)-1H-imidazol-5-yl)imidazo[1,2-b]pyridazine-3-carbonitrile]",,1.8,,
"CC(F)(F)Cn1cnc(-c2ccc(F)c(Cl)c2)c1-c1ccc2ncc(C#N)n2n1 [56′, 6-(4-(3-chloro-4-fluorophenyl)-1-(2,2-difluoropropyl)-1H-imidazol-5-yl)imidazo[1,2-b]pyridazine-3-carbonitrile]",,0.8,,
"N#Cc1cnc2ccc(-c3c(-c4ccc(F)c(Cl)c4)ncn3C3COC3)cn12 [97′, 6-(4-(3-chloro-4-fluorophenyl)-1-(oxetan-3-yl)-1H-imidazol-5-yl)imidazo[1,2-a]pyridine-3-carbonitrile]",,140,,
"CC(C)C(C)n1cnc(-c2ccc(F)cc2)c1-c1ccc2ncc(C#N)n2c1 (stereo not shown) [76′, 6-(4-(4-fluorophenyl)-1-(3-methylbutan-2-yl)-1H-imidazol-5-yl)imidazo[1,2-a]pyridine-3-carbonitrile]",,999,,
"Cn1cnc(-c2ccc(F)c(Cl)c2)c1-c1ccc2ncc(C#N)n2n1 [50′, 6-(4-(3-chloro-4-fluorophenyl)-1-methyl-1H-imidazol-5-yl)imidazo[1,2-b]pyridazine-3-carbonitrile]",,2.3,,
NC(=O)c1cnc2ccc(-c3c(-c4ccc(F)cc4)ncn3[C@H]3C[C@@H](O)C3)nn12 [Example 123′],,4.2,,
"CC(C1CC1)n1cnc(-c2ccc(F)cc2)c1-c1ccc2ncc(C(N)=O)n2c1 (stereo not shown) [167′, 6-(1-(1-cyclopropylethyl)-4-(4-fluorophenyl)-1H-imidazol-5-yl)imidazo[1,2-a]pyridine-3-carboxamide]",,0.6,,
"CC(C)n1cnc(-c2ccc(F)cc2)c1-c1ccc2ncc(C#N)n2n1 [24′, 6-(4-(4-fluorophenyl)-1-isopropyl-1H-imidazol-5-yl)imidazo[1,2-b]pyridazine-3-carbonitrile]",,0.4,,
"N#Cc1cnc2ccc(-c3c(-c4ccccc4)ncn3CC(F)F)nn12 [237′, 6-(1-(2,2-difluoroethyl)-4-phenyl-1H-imidazol-5-yl)imidazo[1,2-b]pyridazine-3-carbonitrile]",,2.9,,
"N#Cc1cnc2ccc(-c3c(-c4cc(Cl)c(F)cc4F)ncn3CC(F)F)cn12 [229′, 6-(4-(5-chloro-2,4-difluorophenyl)-1-(2,2-difluoroethyl)-1H-imidazol-5-yl)imidazo[1,2-a]pyridine-3-carbonitrile]",,8.6,,
